Measurements from PubChem BioAssay (NCI).
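Tested at 5 concentrations; 48 h exposure; 96-well plates; endpoints linearly interpolated, else capped at highest concentration. TGI denotes the concentration required for complete inhibition of growth.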

Key:
Test in all cases: inhibition of tumour cell growth, NCI panel, 48 h
[1] = tested on: 786-0 renal
[2] = tested on: A498 renal
[3] = tested on: A549 NSCLC
[4] = tested on: ACHN renal
[5] = tested on: CAKI-1 renal
[6] = tested on: CCRF-CEM leukemia
[7] = tested on: COLO 205 colon
[8] = tested on: DMS 114 small cell lung
[9] = tested on: DMS 273 small cell lung
[10] = tested on: EKVX NSCLC
[11] = tested on: HCT-116 colon
[12] = tested on: HCT-15 colon
[13] = tested on: HL-60(TB) leukemia
[14] = tested on: HT29 colon
[15] = tested on: K-562 leukemia
[16] = tested on: KM12 colon
[17] = tested on: KM20L2 colon
[18] = tested on: LOX IMVI melanoma
[19] = tested on: LXFL 529 NSCLC
[20] = tested on: M14 melanoma
[21] = tested on: M19-MEL melanoma
[22] = tested on: MALME-3M melanoma
[23] = tested on: MOLT-4 leukemia
[24] = tested on: NCI-H23 lung
[25] = tested on: NCI-H460 lung
[26] = tested on: NCI-H522 lung
[27] = tested on: OVCAR-3 ovarian
[28] = tested on: OVCAR-4 ovarian
[29] = tested on: OVCAR-5 ovarian
[30] = tested on: OVCAR-8 ovarian
[31] = tested on: RPMI-8226 leukemia
[32] = tested on: RXF 393 renal
[33] = tested on: SF-268 CNS
[34] = tested on: SF-295 CNS
[35] = tested on: SF-539 CNS
[36] = tested on: SK-MEL-2 melanoma
[37] = tested on: SK-MEL-28 melanoma
[38] = tested on: SK-MEL-5 melanoma
[39] = tested on: SK-OV-3 ovarian
[40] = tested on: SN12C renal
[41] = tested on: SNB-19 CNS
[42] = tested on: SNB-75 CNS
[43] = tested on: SNB-78 CNS
[44] = tested on: SR leukemia
[45] = tested on: SW-620 colon
[46] = tested on: U251 CNS
[47] = tested on: UACC-257 melanoma
[48] = tested on: UACC-62 melanoma
[49] = tested on: UO-31 renal
[50] = tested on: DLD-1 colon
[51] = tested on: HCC-2998 colon
[52] = tested on: HOP-18 NSCLC
[53] = tested on: HOP-62 NSCLC
[54] = tested on: HOP-92 NSCLC
[55] = tested on: IGROV1 ovarian
[56] = tested on: TK-10 renal
[57] = tested on: NCI-H226 lung
[58] = tested on: XF 498 CNS

Measured: TGI

Cc1ccc(-c2nc3ccccc3c(=O)n2NCC2(O)OCC(O)C(O)C2O)cc1 (centres undefined)
not listed: [50] | [51] | [52] | [53] | [54] | [55] | [56] | [57] | [58]
> 100 µM: all other assays above

N/N=C1\C(=O)N(Cc2ccccc2)C(=O)C1C(=O)NCc1ccccc1 (centres undefined)
not listed: [5] | [9] | [18] | [39] | [42] | [57] | [58]
> 100 µM: all other assays above

C[C@]12CCC(=O)C(OC(=O)c3ccc([N+](=O)[O-])cc3)=C1CCC2=O
not listed: [15] | [24] | [36] | [49] | [58]
> 100 µM: all other assays above

c1ccc(-c2nc3ccccc3nc2SCc2cccnc2)cc1
not listed: [2] | [5] | [12] | [16] | [17] | [18] | [21] | [25] | [26] | [29] | [32] | [35] | [36] | [38] | [44] | [45] | [48] | [50] | [51] | [53] | [55] | [56]
> 100 µM: all other assays above
